Marks after values point to notes of the source that are not given here.
Test system: tissue microarrays (TMAs) from cases with different proteinopathies
Test: Autoradiography and emulsion autoradiography on tissue microarrays
Type: binding, human
Method: Tissue micro-arrays (TMAs), prepared from paraffin-embedded tissue from human post-mortem tissue as described in [14], were first de-paraffinized with two 1 h and one overnight incubation in Neo-Clear Xylene Substitute (Sigma-Aldrich, St. Louis, MO, USA) at 37 °C and then […] in three short incubations at RT with decreasing concentrations of ethanol before autoradiography with [^3H]GMC-058 was performed as described above. For the saturation binding autoradiography, duplicate slides of each TMA set were incubated with 0.3 nM to 200 nM [^3H]GMC-058. Adjacent sections were co-incubated with 5 μM of unlabeled GMC-044 to calculate NSB. The quantification of total and non-specific binding was performed via delineation of the ROIs on the whole core, except for MSA, where the ROI followed the areas in which the binding of [^3H]GMC-058 corresponded to areas with α-syn inclusions. Those cores that had imperfections or were incomplete were not included in the analysis, or only the area of remaining tissue that adhered to the glass slide was delineated. For the cores from the substantia nigra of PD patient cases, the cores selected for analysis were those containing α-syn inclusion, but no A-β deposits of pTau tangles. The information was collected from IHC analysis of adjacent TMA slides.
For high-resolution emulsion autoradiography, an autoradiography experiment with TMAs using 25 nM [^3H]GMC-058 was performed as described above. At the end of the 90 h exposure to the storage phosphor screen, slides were stored in a vacuum until dipping in a photoemulsion. In the dark, using a sodium lamp, Agar Scientific, AGP9284 type NTB emulsion was melted in a heated water bath and diluted (1:1) with ddH2O. The emulsion was poured into dipping chambers, and the slides were dipped and placed vertically to air-dry. When completely dry, the slides were placed in a light-tight slide box with desiccant and exposed at 4 C for 1–12 weeks. After exposure, the slides were developed in diluted Phenisol Developer for 2 min, rinsed in water, and fixed in hypam Fixer at 17 °C in a water bath. After rinsing in water, the slides were counterstained with Harris HTX, dehydrated in graded ethanol, cleared in Xylene, and mounted in Pertex. Images were taken using a 3D Histech P250 III scanner (3DHISTECH Kft. Hungary) at up to 15 focal layers with a distance of 0.2 μm.

- Specific binding, mean (25 nM, TMAs, AD): 127 ** fmol/mg tissue equivalent
- Specific binding, mean (25 nM, TMAs, CAA): 131 ** fmol/mg tissue equivalent
- Specific binding, mean (25 nM, TMAs, CBD): 204 *** fmol/mg tissue equivalent
- Specific binding, mean (25 nM, TMAs, MSA): 166 ** fmol/mg tissue equivalent
- Displaceable (off-target) binding, mean (25 nM, TMAs, NDE (non-dementia elderly controls)): 70 fmol/mg tissue equivalent
- Specific binding, mean (25 nM, TMAs, PD): 129 *** fmol/mg tissue equivalent
- Specific binding, mean (25 nM, TMAs, PSP): 173 *** fmol/mg tissue equivalent
- Displaceable (off-target) binding, mean (25 nM, TMAs, liver control): 57 fmol/mg tissue equivalent
SMILES: [3H]c1cc(N2CCN(c3ccc(NC(=O)C(C)(C)C)cc3)CC2)ccc1OC [[^3H]GMC-058, N-(4-(4-(4-methoxy-[3-3H]phenyl)piperazin-1-yl)phenyl)pivalamide]
- Saturation binding autoradiography (0.3 nM to 200 nM, TMAs): specific binding did not reach saturation in any of the tissues
- Specific binding versus displaceable binding in controls (25 nM, PD, MSA, CAA, AD, PSP and CBD, p < 0.01): significantly higher than the displaceable binding in controls
- Co-localization of binding (high-resolution autoradiography) (25 nM, TMAs): co-localized with α-syn inclusions in PD and MSA, with dense Aβ plaques in CAA and AD, and with p-tau inclusions in PSP and CBD
